Results: patent publication US20100249112A1, “COMBINATION OF CHK AND PARP INHIBITORS FOR THE TREATMENT OF CANCERS” (ASTRAZENECA R&D, priority 2007, published 2010)
Where two headings read alike, the source gives them in different places.

How the values were obtained:
NCI-H460dnp53 cell line = assay: MTS cell viability assay, CHK-PARP combination, NCI-H460dnp53; type: cell-based
Protocol: (§1) Combination experiments were carried out to assess the ability of a CHK inhibitor, i.e., 5-(3-Fluoro-phenyl)-3-ureido-thiophene-2-carboxylic acid (S)-piperidin-3-ylamide, to sensitize cells to a PARP inhibitor, i.e., 4-[3-(4-Cyclopropanecarbonyl-piperazine-1-carbonyl)-4-fluoro-benzyl]-2H-phthalazin-1-one, using a cell viability endpoint.
(§2) The cell lines used in this study were SW620, which endogenously express mutant p53, and NCI-H460dominant negative p53 (NCI-H460dnp53), which are stably transfected to express dominant negative p53. Cells were seeded in 96-well plates on day 0 and treated with either a single drug or simultaneously with both drugs for 4 days beginning on Day 1.
(§3) For sequential addition, either the CHK inhibitor i.e., 5-(3-Fluoro-phenyl)-3-ureido-thiophene-2-carboxylic acid (S)-piperidin-3-ylamide, or the PARP inhibitor, i.e., 4-[3-(4-Cyclopropanecarbonyl-piperazine-1-carbonyl)-4-fluoro-benzyl]-2H-phthalazin-1-one, were added to cells for 24 hours beginning on Day 1, followed by addition of the other drug on Day 2, and exposure to both drugs continued for an additional 72 hours. […] Cells were dosed with the PARP inhibitor to generate a full dose-response curve. See Table 1 for an example of the drug concentrations used in each cell line.
(§4) Cell viability was measured on day 5 using an MTS colorimetric assay. Dose (concentration of drug used, uM) vs. Fraction unaffected (Fu) for PARP alone versus in combination were plotted. Replicate points for the constant concentration of the CHK inhibitor were also plotted. Data were analyzed by comparing the dose-response curve of the single agent to that for the combination.

SW 620 tumors = assay: SW 620 tumor growth inhibition in female nude mice; type: in vivo; details: 3 weeks
Protocol: (§5) SW 620 tumors were staged in female nude mice as described in Chapter 31 “In vivo Tumor response End Points” by B. A. Teicher (see “Tumor Models in Cancer Research” edited by Beverly A. Teicher, p596. Published by Humana Press Inc. 2002). Treatment started when tumors reached ˜170 mm^3. There were 6 groups in this study with n=10/group. PARP inhibitor 4-[3-(4-Cyclopropanecarbonyl-piperazine-1-carbonyl)-4-fluoro-benzyl]-2H-phthalazin-1-one was given 5 times weekly at 50 mg/kg PO. CHK inhibitor 5-(3-Fluoro-phenyl)-3-ureido-thiophene-2-carboxylic acid (S)-piperidin-3-ylamide was given at 12.5 mg/kg and 25 mg/kg twice weekly IV. The combination groups received PARP inhibitor at 50 mg/kg (5 times a week) and, 2 hours later, the CHK inhibitor at 12.5 or 25 mg/kg (twice a week). Mice received 3 weeks of treatment. Overall, treatment was well tolerated except in one case where a mouse was receiving a CHK inhibitor in the 25 mg/kg group it was found dead prior to study endpoint.

[1] = Tolerability / max weight loss in the SW 620 tumor study; type: in vivo; details: for Max weight loss: 3 weeks, female nude mice
Protocol: as §5

SW620 cell line = assay: MTS cell viability assay, CHK-PARP combination, SW620; type: cell-based; details: for IC50: Homo sapiens, SW-620, 96 h
Protocol: as §1, §2, §3, §4

Row | IC50 (NCI-H460dnp53 cell line; 96 h, constant CHK inhibitor 0.33 uM, simultaneous addition, 4 days, 3 experiments, read-out: IC50 of PARP inhibitor, CHK inhibitor + PARP inhibitor simultaneous) | IC50 (NCI-H460dnp53 cell line; 96 h, single agent, 4 days exposure, representative, 3 experiments, read-out: IC50 of PARP inhibitor alone) | IC50 (NCI-H460dnp53 cell line; CHK inhibitor 24 hours, then both drugs for additional 72 hours, 1 experiment, read-out: IC50 of PARP inhibitor, CHK inhibitor followed by PARP inhibitor) | IC50 (NCI-H460dnp53 cell line; PARP inhibitor 24 hours, then both drugs for additional 72 hours, 1 experiment, read-out: IC50 of PARP inhibitor, PARP inhibitor followed by CHK inhibitor) | IC50 (SW620 cell line; constant CHK inhibitor 0.28 uM, simultaneous, 4 days, from 2 independent experiments, not directly comparable, read-out: IC50 of PARP inhibitor, CHK inhibitor + PARP inhibitor simultaneous) | IC50 (SW620 cell line; single agent, 4 days exposure, representative, 3 experiments, read-out: IC50 of PARP inhibitor alone) | SMILES | Activity of CHK inhibitor as a single agent at the constant concentration used (NCI-H460dnp53 cell line; 0.33 uM, determined previously) | Tumor Growth Inhibition % (SW 620 tumors; 12.5 mg/kg twice weekly IV, p > 0.05) | Tumor Growth Inhibition % (SW 620 tumors; 25 mg/kg twice weekly IV, p > 0.05) | Max weight loss ([1]; 12.5 mg/kg twice weekly IV) | Death prior to study endpoint ([1]; 25 mg/kg group, one mouse) | Max weight loss ([1]; 25 mg/kg twice weekly IV) | Activity of CHK inhibitor as a single agent at the constant concentration used (SW620 cell line; 0.28 uM, determined previously) | Tumor Growth Inhibition % (SW 620 tumors; 50 mg/kg PO 5 times weekly, p > 0.1)
1 |  |  |  |  |  |  | NC(=O)Nc1cc(-c2cccc(F)c2)sc1C(=O)N[C@H]1CCCNC1 [CHK inhibitor, 5-(3-Fluoro-phenyl)-3-ureido-thiophene-2-carboxylic acid (S)-piperidin-3-ylamide] | little or no activity | 15% | 22% | 2% | found dead | 1% | little or no activity | 
2 | 1.9 µM | 17.6 µM | 4.1 µM | 3.6 µM | 5.8 µM | 19.4 µM | O=C(c1cc(Cc2n[nH]c(=O)c3ccccc23)ccc1F)N1CCN(C(=O)C2CC2)CC1 [PARP inhibitor, 4-[3-(4-Cyclopropanecarbonyl-piperazine-1-carbonyl)-4-fluoro-benzyl]-2H-phthalazin-1-one] |  |  |  |  |  |  |  | 22%
